Consider 2 compounds from publication PMC6952396, “Structural basis for itraconazole-mediated NPC1 inhibition” (Nature Communications, 2020).

SMILES strings stand for the structures. Read-outs that look alike come from different tables or passages of the source.

The test addresses T1, NPC1 (Cricetulus griseus, UniProt Q9JLG3).
T1 construct: CHO-7 cells in the medium are deprived of cholesterol to induce the LDL receptors biosynthesis; endogenous in cells; host or cells: CHO-7 cells
T1 sequence (Q9JLG3 23-1277): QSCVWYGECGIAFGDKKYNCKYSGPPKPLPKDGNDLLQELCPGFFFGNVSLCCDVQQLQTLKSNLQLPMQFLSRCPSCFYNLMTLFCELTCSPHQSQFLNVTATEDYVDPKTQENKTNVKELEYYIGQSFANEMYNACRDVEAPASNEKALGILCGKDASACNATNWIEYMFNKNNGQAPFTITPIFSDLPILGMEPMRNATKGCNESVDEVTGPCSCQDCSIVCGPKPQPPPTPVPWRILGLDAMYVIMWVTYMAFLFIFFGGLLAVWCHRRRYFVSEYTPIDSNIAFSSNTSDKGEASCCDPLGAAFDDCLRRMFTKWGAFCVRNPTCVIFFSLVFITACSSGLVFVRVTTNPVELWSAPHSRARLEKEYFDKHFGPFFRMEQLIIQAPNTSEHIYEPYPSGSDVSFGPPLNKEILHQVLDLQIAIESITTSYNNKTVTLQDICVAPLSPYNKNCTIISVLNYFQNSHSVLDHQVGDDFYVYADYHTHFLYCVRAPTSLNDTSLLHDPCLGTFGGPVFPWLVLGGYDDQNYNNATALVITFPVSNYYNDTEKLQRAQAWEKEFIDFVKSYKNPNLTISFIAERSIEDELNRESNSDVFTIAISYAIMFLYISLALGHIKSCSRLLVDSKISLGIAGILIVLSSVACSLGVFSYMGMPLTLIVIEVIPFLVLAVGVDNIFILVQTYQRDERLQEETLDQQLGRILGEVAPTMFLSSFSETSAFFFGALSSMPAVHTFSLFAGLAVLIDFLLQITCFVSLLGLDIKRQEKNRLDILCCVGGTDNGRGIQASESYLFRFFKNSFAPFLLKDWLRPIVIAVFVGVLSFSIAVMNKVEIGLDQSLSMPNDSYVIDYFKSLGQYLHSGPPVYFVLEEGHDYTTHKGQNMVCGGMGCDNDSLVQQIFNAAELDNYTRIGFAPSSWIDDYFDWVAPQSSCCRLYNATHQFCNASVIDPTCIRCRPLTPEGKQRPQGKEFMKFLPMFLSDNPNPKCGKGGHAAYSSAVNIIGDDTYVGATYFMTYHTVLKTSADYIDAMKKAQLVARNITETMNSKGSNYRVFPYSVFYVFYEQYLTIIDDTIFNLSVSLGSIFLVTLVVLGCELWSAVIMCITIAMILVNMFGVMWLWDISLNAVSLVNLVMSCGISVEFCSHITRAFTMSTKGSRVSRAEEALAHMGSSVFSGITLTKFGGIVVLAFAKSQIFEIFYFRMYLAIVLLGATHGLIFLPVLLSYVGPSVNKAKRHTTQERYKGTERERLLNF
In words: Cholesterol re-esterification (ACAT) assay measuring NPC1-mediated export of cholesterol from lysosomes in CHO-7 cells. The class given is cell-based. The conditions noted are these: for cholesteryl [14C] oleate formed, Repeat 1 / cholesteryl [14C] oleate formed, Repeat 2: Fig. 2 source data; for cholesteryl [14C] oleate formed, Repeat 3 / cholesteryl [14C] oleate formed, Repeat 4: Supplementary Fig. 3 source data. The source says:
Itraconazole has three chiral centers (Supplementary Fig. 2a). The pharmaceutical form contains four cis-stereoisomers in a 1:1:1:1 molar ratio (Supplementary Fig. 2a–d). To determine the activity of the cis-stereoisomers, the individual isomers were isolated and identified based on their optical rotation in chloroform following a previous report (Supplementary Fig. 2e)[26]. Then, they were separately tested in a cholesterol re-esterification assay used to measure NPC1-mediated export of cholesterol from lysosomes. Briefly, CHO-7 cells in the medium are deprived of cholesterol to induce the LDL receptors biosynthesis. The cells are then incubated with fetal calf serum (FCS) that contains LDL. The LDL-derived cholesterol will now be transported by functional NPC1 protein from the lysosome to the endoplasmic reticulum (ER). The acyl-CoA:cholesterol actyltransferase named ACAT can now re-esterify the cholesterol in the ER. Therefore, the cells were pulse-labeled with [^14C] oleate and we can measure the synthesis of cholesteroyl [^14C] oleate to evaluate the activity of NPC1 protein. Using this assay, we tested the ability of various itraconazole to inhibit NPC1 activity.
Fig. 2 ACAT activity of itraconazole and ketoconazole in CHO-7 cells. On day 0, CHO-7 cells were set up in medium A with 5% LPDS at 2.5 × 10^5 cells/well in 6-well dish. On day 2, cells were switched to medium A with 5% LPDS containing 50 µM sodium compactin and 50 µM sodium mevalonate. On day 3 the cells received fresh medium B containing compactin and mevalonate with various concentration compounds in the presence of 10% FCS containing lipoproteins. After incubation for 4 h at 37 °C, each cell monolayer was pulse-labeled for 2 h with 0.1 mM sodium [^14C] oleate (5792 dpm/nmol). The cells were then harvested for measurement of their content of cholesteryl [^14C] oleate and [^14C] triglycerides, as described in Methods. […] Itraconazole mixture, isomer A (Supplementary Fig. 2a), isomer B (Supplementary Fig. 2b) and isomer C (Supplementary Fig. 2c) were added at final concentrations of 0.3 μM. The isomer D (Supplementary Fig. 2d), I-Br and ketoconazole were added at final concentrations of 1 μM. The biological repeats are shown as individual values. Source data are provided as a Source Data file.
On day 0, cells were set up in medium A with 5% LPDS at 2.5 × 10^5 cells/well in six-well dish. On day 2, cells were switched to medium A with 5% LPDS containing 50 µM sodium compactin and 50 µM sodium mevalonate. On day 3 the cells received fresh medium B containing compactin and mevalonate with indicated concentration triazole compounds in the presence of 10% FCS containing lipoproteins. After incubation for 4 h at 37 °C, each cell monolayer was pulse-labeled for 2 h with 0.1 mM sodium [^14C] oleate (5792 dpm/nmol). The cells were then harvested for measurement of their content of cholesteryl [^14C] oleate and [^14C] triglycerides.
The rate of incorporation of [^14C] oleate into cholesteryl [^14C] oleate and [^14C] triglycerides by monolayers of NPC1^−/− cells and CHO-7 cells was measured as described previously. In brief, cells were switched to medium containing LPDS supplemented with compactin and mevolonate at 16 h before the experiments. On the day of the experiment, cells were incubated for 4 h with fresh medium containing FCS as a source of cholesterol-containing lipoproteins. Cells were then pulse –labeled for 2 h with 0.1 mM sodium [^14C] oleate. Cells were then washed, and the lipids were extracted in hexane:isopropanol (3:2, vol:vol), separated on a silica gel G thin-layer chromatogram (developed in heptane:ethylether:acetic acid, 90:30:1), and quantified by scintillation counting with the use of an internal standard for recovery.

As for `CCC(C)n1ncn(-c2ccc(N3CCN(c4ccc(OCC5COC(Cn6cncn6)(c6ccc(Cl)cc6Cl)O5)cc4)CC3)cc2)c1=O` (stereo not shown) [Itra-C], the “cholesteryl [14C] oleate formed, Repeat 1” value runs as follows: (0.01 uM compound) 2.751 nanomoles formed per hour per milligram cell protein; (0.03 uM compound) 3.794 nanomoles formed per hour per milligram cell protein; (0.06 uM compound) 2.064 nanomoles formed per hour per milligram cell protein; (0.1 uM compound) 1.063 nanomoles formed per hour per milligram cell protein; (0.3 uM compound) 0.4254 nanomoles formed per hour per milligram cell protein. Moreover, the “cholesteryl [14C] oleate formed, Repeat 2” value was 4.364 nanomoles formed per hour per milligram cell protein (0.01 uM compound); 3.288 nanomoles formed per hour per milligram cell protein (0.03 uM compound); 2.2038 nanomoles formed per hour per milligram cell protein (0.06 uM compound); 0.9711 nanomoles formed per hour per milligram cell protein (0.1 uM compound); 0.7413 nanomoles formed per hour per milligram cell protein (0.3 uM compound). The “cholesteryl [14C] oleate formed, Repeat 3” value (“cholesteryl … Repeat 3” for short) (0.01 uM compound) is recorded as 5.964 nanomoles formed per hour per milligram cell protein; the “cholesteryl … Repeat 3” value (0.03 uM compound) is recorded as 5.048 nanomoles formed per hour per milligram cell protein; the “cholesteryl … Repeat 3” value (0.06 uM compound) is listed as 2.593 nanomoles formed per hour per milligram cell protein; the “cholesteryl … Repeat 3” value (0.1 uM compound) is 0.7465 nanomoles formed per hour per milligram cell protein; the “cholesteryl … Repeat 3” value (0.3 uM compound) is 0.1456 nanomoles formed per hour per milligram cell protein. The “cholesteryl [14C] oleate formed, Repeat 4” value runs as follows: (0.01 uM compound) 6.001 nanomoles formed per hour per milligram cell protein; (0.03 uM compound) 4.017 nanomoles formed per hour per milligram cell protein; (0.06 uM compound) 3.086 nanomoles formed per hour per milligram cell protein; (0.1 uM compound) 0.811 nanomoles formed per hour per milligram cell protein; (0.3 uM compound) 0.04925 nanomoles formed per hour per milligram cell protein. The IC50 (IC50 (concentration at which each compound inhibited cholesterol esterification by 50%), 10% FCS, 4 h then 2 h [14C] oleate pulse) turned out to be 35 nM.
On to `CCC(C)n1ncn(-c2ccc(N3CCN(c4ccc(OCC5COC(Cn6cncn6)(c6ccc(Cl)cc6Cl)O5)cc4)CC3)cc2)c1=O` (stereo not shown) [Itra-D], for which the “cholesteryl [14C] oleate formed, Repeat 1” value runs as follows: (0.01 uM compound) 5.124 nanomoles formed per hour per milligram cell protein; (0.03 uM compound) 5.201 nanomoles formed per hour per milligram cell protein; (0.06 uM compound) 4.957 nanomoles formed per hour per milligram cell protein; (0.1 uM compound) 4.223 nanomoles formed per hour per milligram cell protein; (0.3 uM compound) 1.696 nanomoles formed per hour per milligram cell protein; (1 uM compound) 0.3184 nanomoles formed per hour per milligram cell protein. For the same compound, the “cholesteryl [14C] oleate formed, Repeat 2” value is recorded as 4.829 nanomoles formed per hour per milligram cell protein (0.01 uM compound); 5.414 nanomoles formed per hour per milligram cell protein (0.03 uM compound); 4.372 nanomoles formed per hour per milligram cell protein (0.06 uM compound); 3.931 nanomoles formed per hour per milligram cell protein (0.1 uM compound); 0.8471 nanomoles formed per hour per milligram cell protein (0.3 uM compound); 0.2982 nanomoles formed per hour per milligram cell protein (1 uM compound). Moreover, the “cholesteryl … Repeat 3” value runs as follows: (0.01 uM compound) 5.364 nanomoles formed per hour per milligram cell protein; (0.03 uM compound) 4.815 nanomoles formed per hour per milligram cell protein; (0.06 uM compound) 4.6935 nanomoles formed per hour per milligram cell protein; (0.1 uM compound) 3.618 nanomoles formed per hour per milligram cell protein; (0.3 uM compound) 0.9245 nanomoles formed per hour per milligram cell protein; (1 uM compound) 0.3042 nanomoles formed per hour per milligram cell protein. Further, the “cholesteryl [14C] oleate formed, Repeat 4” value is, setting by setting: (0.01 uM compound) 5.55 nanomoles formed per hour per milligram cell protein; (0.03 uM compound) 5.633 nanomoles formed per hour per milligram cell protein; (0.06 uM compound) 4.899 nanomoles formed per hour per milligram cell protein; (0.1 uM compound) 3.755 nanomoles formed per hour per milligram cell protein; (0.3 uM compound) 0.77 nanomoles formed per hour per milligram cell protein; (1 uM compound) 0.4741 nanomoles formed per hour per milligram cell protein. Further, the IC50 (read-out: IC50 (concentration at which each compound inhibited cholesterol esterification by 50%), 10% FCS, 4 h then 2 h [14C] oleate pulse) worked out at 175 nM.
